Structures are written as SMILES.

In the assay the target is T1, MrkH (MrkH-8×His) (Klebsiella pneumoniae, UniProt G3FT00).
T1 construct: full length, 234 aa, C-terminal 8×His tag, expressed from pET11a in E. coli BL21(DE3), about 28 kDa
Put plainly: EMSA with […]-labelled mrkA promoter fragment. It counts as biochemical. As to conditions: 200 µM c-di-GMP; pH 7.4; 30°C; 0-500 nM protein; allosteric activator of DNA binding; indirect read-out, no direct c-di-GMP binding measured.

T1 sequence (G3FT00 entry or part of it): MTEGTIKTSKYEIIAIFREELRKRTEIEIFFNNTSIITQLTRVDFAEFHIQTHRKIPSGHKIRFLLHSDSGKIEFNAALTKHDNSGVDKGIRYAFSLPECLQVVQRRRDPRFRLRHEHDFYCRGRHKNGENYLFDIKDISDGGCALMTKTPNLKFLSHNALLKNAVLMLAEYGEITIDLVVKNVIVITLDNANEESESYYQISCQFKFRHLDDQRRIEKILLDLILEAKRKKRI

As for `Nc1nc2c(ncn2[C@@H]2O[C@@H]3COP(=O)(O)O[C@H]4[C@@H](O)[C@H](n5cnc6c(=O)[nH]c(N)nc65)O[C@@H]4COP(=O)(O)O[C@H]3[C@H]2O)c(=O)[nH]1` [c-di-GMP], the “EMSA with 32P-labelled mrkA promoter fragment” value is “In the presence of c-di-GMP, the majority of the DNA was shifted”.

For the origin of these results see PMC3161979, “MrkH, a Novel c-di-GMP-Dependent Transcriptional Activator, Controls Klebsiella pneumoniae Biofilm Formation by Regulating Type 3 Fimbriae Expression” (PLoS Pathogens, 2011).
